Earlier results as cited in patent US11198893B2, “Method for producing omega 3 and omega 6 unsaturated fatty acid oxides” (Bizen Chemical Co., Ltd., priority 2016, dated 2021).

Columns and labels:
[1] = tested on: obese mice
[2] = tested on: liver glucose synthesis

With `CC/C=C\C[C@H](O)/C=C/C=C\C/C=C\C/C=C\C/C=C\CCC(=O)O` [17S-HDHA] as the compound, how does the “glucose tolerance and insulin resistance” value [1] read?
The value was “improve glucose tolerance and insulin resistance”.

What about the inflammatory cytokine expression [1] of the same compound?
Its inflammatory cytokine expression is “suppresses inflammatory cytokine expression”.

With `CC/C=C\C[C@H](O)/C=C/C=C\C=C\[C@@H](O)C/C=C\C/C=C\CCC(=O)O` [protectin DX] as the compound, how does the glycometabolism [2] read?
The glycometabolism was “action to promote glycometabolism”.

What about the liver glucose synthesis [2] of the same compound?
The liver glucose synthesis was “action to suppress liver glucose synthesis”.
